Assay results: patent US20260193238A1, “PHARMACEUTICAL COMPOUNDS AS PARP7 AND/OR PARP1 INHIBITORS” (Duke Street Bio Limited, priority 2022, published 2026)

Target: PARP1 (Homo sapiens, UniProt P09874)
Sequence (P09874 whole entry): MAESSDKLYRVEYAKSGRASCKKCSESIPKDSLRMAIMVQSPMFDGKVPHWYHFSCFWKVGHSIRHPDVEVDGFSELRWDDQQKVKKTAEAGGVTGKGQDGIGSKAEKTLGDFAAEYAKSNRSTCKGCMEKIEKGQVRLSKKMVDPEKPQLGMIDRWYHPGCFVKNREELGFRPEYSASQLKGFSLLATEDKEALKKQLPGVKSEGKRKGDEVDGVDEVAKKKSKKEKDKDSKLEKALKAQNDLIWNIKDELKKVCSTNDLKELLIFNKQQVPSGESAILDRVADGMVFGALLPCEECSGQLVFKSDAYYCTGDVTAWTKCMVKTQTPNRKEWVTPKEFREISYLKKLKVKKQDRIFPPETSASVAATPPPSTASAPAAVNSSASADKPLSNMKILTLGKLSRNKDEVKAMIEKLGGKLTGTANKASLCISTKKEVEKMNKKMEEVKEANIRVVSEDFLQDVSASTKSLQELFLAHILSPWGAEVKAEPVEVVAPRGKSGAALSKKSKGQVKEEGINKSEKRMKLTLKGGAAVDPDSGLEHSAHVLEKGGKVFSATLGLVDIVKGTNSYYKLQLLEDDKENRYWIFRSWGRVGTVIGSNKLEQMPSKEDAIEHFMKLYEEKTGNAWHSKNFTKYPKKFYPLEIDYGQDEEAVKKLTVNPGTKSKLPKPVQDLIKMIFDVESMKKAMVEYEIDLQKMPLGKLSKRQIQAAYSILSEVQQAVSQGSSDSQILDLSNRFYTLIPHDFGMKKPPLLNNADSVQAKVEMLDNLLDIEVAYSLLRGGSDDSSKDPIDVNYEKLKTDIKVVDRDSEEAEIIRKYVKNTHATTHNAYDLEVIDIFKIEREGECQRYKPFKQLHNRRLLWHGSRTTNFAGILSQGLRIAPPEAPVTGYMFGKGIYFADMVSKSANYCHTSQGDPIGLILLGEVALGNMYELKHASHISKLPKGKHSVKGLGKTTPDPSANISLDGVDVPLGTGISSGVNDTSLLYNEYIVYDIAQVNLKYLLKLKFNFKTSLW
Test: PARP1 biochemical DELFIA assay (auto-PARylation)
Settings: Table 1
Procedure: Prior to assay, wells were washed 3×5 min in coating wash buffer.
% data was fitted to a non-linear regression equation (log inhibitor vs response-variable slope 4-parameters) to obtain IC50 values.
`O=C(CCN1CCC(c2cc(C(F)(F)F)c(=O)[nH]n2)C1)N1CCN(c2ncc(C(F)(F)F)cn2)CC1` (single isomer, unassigned) [Compound 7a] gave an IC50 of 100 to 1000 nM.
`N#Cc1ccc(N2CCN(C(=O)CCN3CCCC(c4cc(C(F)(F)F)c(=O)[nH]n4)C3)CC2)nc1` (single isomer, unassigned) [Compound 11b] showed an IC50 of 100 to 1000 nM.
`O=C(CCN1CCCC(c2cc(C(F)(F)F)c(=O)[nH]n2)C1)N1CCN(c2ccc(Cl)cn2)CC1` (single isomer, unassigned) [Compound 15b] gave an IC50 of 100 to 1000 nM.
`O=C(CN1CCCC(c2cc(C(F)(F)F)c(=O)[nH]n2)C1)N1CCN(c2ncc(C(F)(F)F)cn2)CC1` (single isomer, unassigned) [Compound 14b] showed an IC50 of 100 to 1000 nM.
`O=C(CCN1CCCC(c2cc(C(F)(F)F)c(=O)[nH]n2)C1)N1CCN(c2ncc(Cl)cn2)CC1` (racemic) [Compound 20rac] showed an IC50 of 100 to 1000 nM.
Compound `O=C(CCN1CCCC(c2cc(C(F)(F)F)c(=O)[nH]n2)C1)N1CCN(c2ncc(C(F)(F)F)s2)CC1` (single isomer, unassigned) [Compound 27a] has an IC50 of 10 to 100 nM.
`O=C(CCN1CCCC(c2cc(C(F)(F)F)c(=O)[nH]n2)C1)N1CCN(c2cnc(C(F)(F)F)cn2)CC1` (racemic) [Compound 30rac] gave an IC50 of 100 to 1000 nM.
In the case of `O=C(CCN1CCCC(c2cc(C(F)(F)F)c(=O)[nH]n2)C1)N1CCN(c2ccc(F)cn2)CC1` (single isomer, unassigned) [Compound 8b], the IC50 is reported as 100 to 1000 nM.
`CNC(=O)c1ccc(N2CCN(C(=O)CCN3CCCC(c4cc(C(F)(F)F)c(=O)[nH]n4)C3)CC2)nc1` (single isomer, unassigned) [Compound 28b] gave an IC50 of 100 to 1000 nM.
Compound “6-(1-(3-oxo-3-(4-(5-(trifluoromethyl)pyrimidin-2-yl)piperazin-1-yl)propyl)azetidin-2-yl)-4-(trifluoromethyl)pyridazin-3(2H)-one [Compound 5rac]” has an IC50 of 10 to 100 nM.

Same assay, conditions: Table 1A
For `N#Cc1cc(C2CCCN2CC(=O)N2CC(Nc3ncc(C(F)(F)F)cn3)C2)n[nH]c1=O` (single isomer, unassigned) [Compound 123a], the IC50 was 10 to 100 nM.
With `O=C(CN1CCCC1c1cc(C(F)(F)F)c(=O)[nH]n1)N1CCN(c2ncc(F)cc2C(F)(F)F)CC1` (single isomer, unassigned) [Compound 120a] the IC50 was 1000 to 10000 nM.
Work on `N#Cc1ccc(N2CCN(C(=O)CN3CCCC3c3c[nH]c(=O)c(C(F)(F)F)c3)CC2)nc1` (single isomer, unassigned) [Compound 77b] yielded an IC50 of 100 to 1000 nM.
`N#Cc1cnc(N2CCN(C(=O)CN3CCCC3c3c[nH]c(=O)c(C(F)(F)F)c3)CC2)nc1` (single isomer, unassigned) [Compound 76b] showed an IC50 of 100 to 1000 nM.
Work on `CCc1cc(C2CCCN2CC(=O)N2CCN(c3ncc(C(F)(F)F)cn3)CC2)n[nH]c1=O` (single isomer, unassigned) [Compound 40a] yielded an IC50 of 10 to 100 nM.
For `O=C(CN1CCC(c2cc(C(F)(F)F)c(=O)[nH]n2)CC1)N1CCN(c2ncc(C(F)(F)F)cn2)CC1` [Compound 62], the IC50 was 100 to 1000 nM.
In the case of `N#Cc1cnc(N2CCN(C(=O)CN3CCCC3c3cc(C(F)(F)F)c(=O)[nH]n3)CC2)c(C(F)(F)F)c1` (single isomer, unassigned) [Compound 124b], the IC50 is reported as 1000 to 10000 nM.
`Cc1[nH]c(=O)c(C(F)(F)F)cc1C1CCCN1CC(=O)N1CCN(c2ncc(C(F)(F)F)cn2)CC1` (single isomer, unassigned) [Compound 102a, 6-methyl-5-(1-(2-oxo-2-(4-(5-(trifluoromethyl)pyrimidin-2-yl)piperazin-1-yl)ethyl)pyrrolidin-2-yl)-3-(trifluoromethyl)pyridin-2(1H)-one] gave an IC50 of 100 to 1000 nM.
With `CCc1cc(C2CCCN2CC(=O)N2CCN(c3ncc(C(F)(F)F)cn3)CC2)c[nH]c1=O` (single isomer, unassigned) [Compound 57b] the IC50 was 1000 to 10000 nM.
Compound `O=C(CCN1CC2(c3cc(C(F)(F)F)c(=O)[nH]n3)CC1C2)N1CCN(c2ncc(C(F)(F)F)cn2)CC1` [Compound 103] has an IC50 of 100 to 1000 nM.
Compound `O=C(CN1CCCC1c1cc(C(F)(F)F)c(=O)[nH]n1)N1CCN(c2nc3ccc(Cl)cc3o2)CC1` (single isomer, unassigned) [Compound 85b] has an IC50 of 1000 to 10000 nM.
Work on `O=C(CN1CCCC1c1cc(C(F)(F)F)c(=O)[nH]n1)N1CCN(c2ncc(Cl)cn2)CC1` (single isomer, unassigned) [Compound 35a] yielded an IC50 of 10 to 100 nM.
For `N#Cc1[nH]c(=O)c(C(F)(F)F)cc1C1CCCN1CC(=O)N1CCN(c2ncc(C(F)(F)F)cn2)CC1` (racemic) [Compound 115rac], the IC50 was greater than 10000 nM.
For `CNC(=O)c1ccc(N2CCN(C(=O)CN3CCCC3c3cc(C(F)(F)F)c(=O)[nH]n3)CC2)nc1` (single isomer, unassigned) [Compound 55a], the IC50 was 1000 to 10000 nM.
Work on `CCc1[nH]c(=O)c(C(F)(F)F)cc1C1CCCN1CC(=O)N1CCN(c2ncc(C(F)(F)F)cn2)CC1` (single isomer, unassigned) [Compound 105b] yielded an IC50 of 1000 to 10000 nM.
`CC1(C)C[C@H](c2cc(C(F)(F)F)c(=O)[nH]n2)N(CC(=O)N2CCN(c3ncc(C(F)(F)F)cn3)CC2)C1` [Compound 94a] gave an IC50 of 10 to 100 nM.
Compound `CNC(=O)c1ccc(N2CCN(C(=O)CCN3CCCC3c3c[nH]c(=O)c(C(F)(F)F)c3)CC2)cn1` (single isomer, unassigned) [Compound 73b] has an IC50 of 1000 to 10000 nM.
`CNC(=O)c1ccc(N2CCN(C(=O)CCN3CCC3c3cc(C(F)(F)F)c(=O)[nH]n3)CC2)cn1` (single isomer, unassigned) [Compound 56b] gave an IC50 of 100 to 1000 nM.
Work on `CNC(=O)c1ccc(N2CCN(C(=O)CN3CCOCC3c3cc(C(F)(F)F)c(=O)[nH]n3)CC2)cn1` (single isomer, unassigned) [Compound 90b] yielded an IC50 of 1000 to 10000 nM.
`O=C(CN1CCCC1c1cc(C(F)(F)F)c(=O)[nH]n1)N1CCN(c2nc3ccc(F)cn3n2)CC1` (single isomer, unassigned) [Compound 128b] gave an IC50 of 1000 to 10000 nM.
`O=C(CN1CC(F)(F)C[C@H]1c1cc(C(F)(F)F)c(=O)[nH]n1)N1CCN(c2ncc(C(F)(F)F)cn2)CC1` [Compound 91b, (S)-6-(4,4-difluoro-1-(2-oxo-2-(4-(5-(trifluoromethyl)pyrimidin-2-yl)piperazin-1-yl)ethyl)pyrrolidin-2-yl)-4-(trifluoromethyl)pyridazin-3(2H)-one] showed an IC50 of 1000 to 10000 nM.
In the case of `O=C(CN1CC(F)(F)C[C@@H]1c1cc(C(F)(F)F)c(=O)[nH]n1)N1CCN(c2ncc(C(F)(F)F)cn2)CC1` [Compound 91a, (R)-6-(4,4-difluoro-1-(2-oxo-2-(4-(5-(trifluoromethyl)pyrimidin-2-yl)piperazin-1-yl)ethyl)pyrrolidin-2-yl)-4-(trifluoromethyl)pyridazin-3(2H)-one], the IC50 is reported as 100 to 1000 nM.
`O=C(CCN1CCC(c2n[nH]c(=O)c3ccccc23)CC1)N1CCN(c2ncc(C(F)(F)F)cn2)CC1` [Compound 49] gave an IC50 of 10 to 100 nM.
Work on `O=C(CN1CCCC1c1cc(C(F)(F)F)c(=O)[nH]n1)N1CCN(c2nc3ccc(F)cn3n2)CC1` (single isomer, unassigned) [Compound 128a] yielded an IC50 of no more than 10 nM.

Tested on: PARP1 over PARP2
Test: not given
Settings: PARP1 inhibitor and trapper; cited from earlier work
In the case of `CCc1cc2ncc(CN3CCN(c4ccc(C(=O)NC)nc4)CC3)cc2[nH]c1=O` [AZD5305], the “selectivity over PARP2” value is listed as 500 fold.
